Assay results taken from patent publication EP3138849B1, “SALTS OF PHOSPHORUS-CONTAINING AMINOGLYCOSIDE ANTIBIOTICS” (Mathys AG Bettlach, priority 2015, dated 2017).

Tests used:
[1] = tested on: MC 3T3-E1-Zellen; assay type: cell-based, Maus
Protocol: Für die Untersuchungen der Cytokompatibilität der aminoglykosidhaltigen Beschichtungen werden runde, sandgestrahlte Probekörper aus Reintitan mit einem Durchmesser von 11 mm mit Gentamicin-Palmitat, Gentamicin-Dodecylphosphat bzw. Gentamicin-Octadecylphosphonsäure mit einem Gehalt von 100 µg Gentamicn-Base pro cm^2, wie in Beispiel 30 beschrieben, beschichtet.
Die Probekörper werden nach dem Trocknen der Beschichtung in Mikrotiterplatten überführt und mit einer definierten Anzahl von MC 3T3-E1-Zellen (Maus-Präosteoblasten-Zelllinie, 25.000 Zellen/ml) besiedelt.
Nach einer Inkubationszeit von 4 Tagen erfolgt die Vitalfärbung mit einer Mischung aus Fluoresceindiacetat (FDA) und GelRed®.
Fig. 2 zeigt die Vitalitätsbestimmung der Zellen mittels Auflicht-Fluoreszenzmikroskopie: Gentamicin-Palmitat (A), Gentamicin-Dodecylphosphat (B), Gentamicin-Octadecylphosphat (C).

[2] = Release of aminoglycosides from coatings on pure titanium test discs; assay type: physicochemical; details: for Freisetzungsrate von Gentamicin-Base (time course) / initiale Freisetzung von Gentamicin-Base: coated titanium disc, 100 µg Gentamicin-Base per cm^2, 1 ml isotonic saline, 37 °C; for Freisetzungsrate von Gentamicin-Base (time course): 21 d, sampling at 1, 2, 3, 4, 7, 14, 21 days; for Freisetzungsrate von Gentamicin-Base (time course) / Wirkstofffreisetzung von beschichteten Titanoberflächen: Fig. 1; for initiale Freisetzung von Gentamicin-Base: Fig. 1, start of release; for Wirkstofffreisetzung von beschichteten Titanoberflächen: compared with Gentamicin-Palmitat
From the text: Zur Untersuchung der Freisetzung von Aminoglykosiden aus Beschichtungen werden runde Probekörper aus Reintitan (Grade 4) mit einem Durchmesser von 11 mm verwendet. Für die Beschichtungen werden folgende Aminoglycosid-Verbindungen verwendet: Gentamicin-Palmitat, Gentamicin-Dodecylphosphat und Gentamicin-Octadecylphosphonsäure.
Umsetzung von Gentamicin mit Palmitat im molaren Verhältnis 1:4. Umsetzung von Gentamicin mit Dodecylphosphat bzw. Octadecylphosphonat im molaren Verhältnis 1:3.
Lösung von Gentamicin-Palmitat, Gentamicin-Dodecylphosphat und Gentamicin-Octadecylphosphonsäure in Ethanol (Konzentration 15-25 mg/ml). Auf die Oberfläche wurden unter sterilen Bedingungen 100 µg Gentamicin-Base pro cm^2 aufgetragen. Trocknen der Beschichtung (4 h bei Raumtemperatur).
Inkubation der beschichteten Probekörper in 1 ml isotonischer Kochsalzlösung über eine Zeitdauer von 21 d bei 37 °C. Zu festgelegten Zeitpunkten (1, 2, 3, 4, 7, 14 und 21 Tagen) werden die Überstände abgenommen und die Probekörper in neuer isotonischer Kochsalzlösung weiter inkubiert.
Der Gehalt an Gentamicin wurde im Hemmhoftest mit Bacillus subtilis (ATCC 6633) bestimmt.
Die gemittelte Menge der freigesetzten Gentamicin-Base aus diesen Gentamicin-Salzen ist in Fig. 1 dargestellt.

| Substance | Zytotoxizität [1] | Freisetzungsrate von Gentamicin-Base (time course) [2] | initiale Freisetzung von Gentamicin-Base [2] | Wirkstofffreisetzung von beschichteten Titanoberflächen [2] | Zellzahlen [1] |
| --- | --- | --- | --- | --- | --- |
| Gentamicin-Dodecylphosphat | signifikant geringere Zytotoxizität | bleibt bis Tag 7 konstant und fällt dann nur schwach ab | niedrigere Freisetzungsrate von Gentamicin-Base als das Gentamicin-Palmitat | retardierende Wirkstofffreisetzung | – |
| Gentamicin-Octadecylphosphonsäure | – | bleibt von Tag 2 bis Tag 14 konstant | niedrigste initiale Freisetzung von Gentamicin-Base | retardierende Wirkstofffreisetzung | – |
| Gentamicin-Palmitat [reference compound] | – | bis zum vierten Freisetzungstag stark abnimmt | initial hohen Freisetzung der Gentamicin-Base (Burst release) | – | niedrigsten Zellzahlen |
